Columns and labels:
[1] = test system: women with PCOS and hyperprolactinemia; details: during ovarian induction with GnRH agonist, FSH and hCG; cited from earlier work
OHSS rats = assay: Previous experiments of the group: cabergoline and vascular permeability in OHSS rats; type: in vivo; details: cabergoline 250 μg/kg/day; p<0.05
Description: Vehicle control group (quinagolide 0 μg/kg) (n=8). Eight rats were implanted with prolactin placebo pellets, 5 days release, between 10:00 to 11:00 on day 26, just following hCG injection (see General Procedures, above). Six hours after pellet implantation, the rats in this group were orally administered vehicle solution (1:6 alcohol in water mixture) (without quinagolide). They received another oral vehicle administration of vehicle solution 24 hours later. Experimental groups (quinagolide at 0.1, 0.3, 1, 3, 10, 25, 50 μg/kg/day to 7 test groups of rats) (n=8 in each test group). The rats in these groups were implanted with prolactin pellets, 5 days release, between 10:00 to 11:00 on day 26, just following hCG injection (see General Procedures, above). […] In this manner, the desired 0.1, 0.3, 1, 3, 10, 25, 50 μg/kg doses to be assayed were achieved. Twenty four hours later, the rats in this group were administered with another dose of the same amounts of quinagolide. Positive (cabergoline) control group (n=6). These six rats were implanted with prolactin pellets, 5 days release, between 10:00 to 11:00 .m on day 26, just following hCG injection. […] Twenty four hours later, the rats in this group were administered with another dose of the same amount of cabergoline. […] Reconstitution and dilution process to reach appropriate quinagolide doses for oral administration. […]

[2] = test system: women at risk of developing moderate-severe early OHSS; assay: Prospective, randomized, double blind study of cabergoline in oocyte donors at risk of OHSS (Example 6); type: in vivo
Description: Materials and Methods. Example 5 is a prospective, randomized and double blind study of 54 oocyte donors in whom 20-30 follicles greater than 12 mm developed, and from whom more than 20 oocytes were retrieved. Immediately after hCG administration, patients were divided in two groups based on a computer randomization: 1) the study group (n=29) received 0.5 mg oral cabergoline daily for eight days; the control group (n=25) received one tablet of placebo for the same eight days. The patients were monitored every 48 hours from the day of hCG administration (day 0) up through day 8. The presence of ascites was defined as a pocket of peritoneal fluid greater than 9 cm^2, with the patient in litotomy position seen on vaginal ultrasound. Also, regular blood parameters and serum PRL levels were recorded.

[3] = test system: patient with pituitary adenoma and OHSS; details: cabergoline 0.5 mg twice per week for three weeks; cited from earlier work

In the case of `C=CCN1C[C@H](C(=O)N(CCCN(C)C)C(=O)NCC)C[C@@H]2c3cccc4[nH]cc(c34)C[C@H]21` [Cabergoline, cabergoline], the “risk of OHSS” value [1] is listed as “reduce the risk of OHSS”, the “vascular permeability in OHSS rats” value (OHSS rats) is listed as “significant decrease in vascular permeability” and the “Haemoglobin day 4” value ([2]; 0.5 mg oral cabergoline daily for eight days, n=29, mean ± SEM, p 0.006 vs control) is listed as 12.7 ± 1.2 g/dL. For the same compound, the “Haemoglobin day 6” value ([2]; 0.5 mg oral cabergoline daily for eight days, n=29, mean ± SEM, p 0.01 vs control) was 12.9 ± 1.2 g/dL, the “Free fluid area day 6” value ([2]; 0.5 mg oral cabergoline daily for eight days, n=29, mean ± SEM, p 0.03 vs control) was 8.8 ± 1.7 cm2 and the “Hematocrit day 6” value ([2]; 0.5 mg oral cabergoline daily for eight days, n=29, mean ± SEM, p 0.04 vs control) was 38.9 ± 3.9%. For the same compound, the Ascites % ([2]; 0.5 mg oral cabergoline daily for eight days, 7/29 patients, ascites = pocket of peritoneal fluid greater than 9 cm^2, p 0.01 vs control) was 24.1 7/29%, the “Serum PRL levels” value ([2]; 0.5 mg oral cabergoline daily, days 2, 4, 6 and 8 as compared to controls, p<0.0001) was “significantly lower” and the prolactin levels [3] was “normalized prolactin levels”.
